{
  "source": "patent US9078868B2",
  "about": "“Therapeutic agent for accelerating recovery of animal under medical treatment” (UNIVERSITY OF MIYAZAKI, priority 2010, dated 2015)",
  "key": {"[1]": {"test_system": "animals under medical treatment with physical conditions worsened by various diseases", "test": "Example 2: single dose of ghrelin in animals under medical treatment for pathological conditions other than a surgery", "format": "in vivo, canines and felines", "conditions": "for Activity (vigor): animals improved/animals evaluated / Activity (vigor): response rate / Biochemical tests: animals improved/animals evaluated / Biochemical tests: response rate / Hematology tests: animals improved/animals evaluated / Hematology tests: response rate / Body temperature: animals improved/animals evaluated / Body temperature: response rate: single dose", "experimental": "In these Examples, a canine-derived ghrelin (a peptide compound in which a side chain hydroxyl group of the serine residue at the 3rd position from the amino terminus is acylated with an n-octanoyl group in SEQ ID NO: 1) was used as ghrelin. The canine-derived ghrelin was chemically synthesized and then lyophilized, and a canine-derived ghrelin for administration containing 0.1, 0.3, 0.5, or 1 mg per vial of a canine-derived ghrelin was prepared.\nTo administer ghrelin to animals, the canine-derived ghrelin was dissolved to a concentration of 1 mg/2 mL in physiological saline and intravenously, subcutaneously, or intramuscularly injected after the dose was adjusted depending on the body weight.\nAnimals hospitalized in veterinary hospitals, particularly canines and felines, were used for treatment. These animals may or may not have undergone a surgery for treatment. The surgeries performed on the animals were pyometra surgery, surgical removal of a reproductive organ, surgical removal of mammary gland tumor, ovary cyst surgery, liver cell tumor surgery, disc hernia surgery, diaphragmatic hernia surgery, fracture surgery, gastrointestinal tract surgery, and urethroplasty.\nPhysical conditions in animals with various pathological conditions were examined by measuring parameters including activity (vigor), blood cell test values, biochemical test values, urinalysis, electrolyte tests, body weight, body temperature, the degree of anger or anxiety, respiratory rate, and the like to evaluate the effect of improving physical conditions in the animals. The effect was evaluated by comparing various evaluation parameters before and after administration.\nThe evaluation parameters used were activity (vigor), body temperature, hematology parameters (blood cell test values), serum biochemistry parameters (biochemical test values), the degree of anger or anxiety, and respiratory rate. […] The degree of anger or anxiety of an animal observed visually by an observer were also evaluated using the following criteria: 1. calm and accustomed to a health care professional, 2. able to be touched by but unaccustomed to a health care professional and restless, 3. wandering around or hiding in the kennel with anxiety, 4. able to be barely touched, and 5. too violent to be touched by a health care professional and tends to bite.\nTen animals had two or more diseases concurrently. The diseases including concurrent diseases were as follows: lower urological syndrome, urinary retention, infectious respiratory syndrome, chronic renal failure, osteoarthritis, chronic hepatitis, cystolithiasis, malnutrition, debility, jaundice, circulatory insufficiency, multiple organ failure, pulmonary edema, anemia, tabefaction, diarrhea, vomiting, wheezing, pyrexia, FIV, FELV infection, CPV infection, FVR, a liver disease, filariasis, hemobartonellosis, babesiosis, habu bite, anaphylaxis, a falling accident, rib fracture, and burn.\nOf the animals with these diseases, the evaluation parameters recorded in medical records were as follows: activity (vigor) in 16 animals, biochemistry parameters (biochemical test values) in 11 animals, hematology parameters (blood cell test values) in three animals, and body temperature in one animal."}, "[2]": {"test_system": "animals which did not ingest food after administration of ghrelin", "test": "Example 4: improvement in animals which did not ingest food after administration of ghrelin", "format": "in vivo, canines and felines", "description": "Diseases: Rib fracture, chronic renal failure, falling accident, infectious respiratory syndrome, hemobartonellosis, FIV, FELV infection, CPV infection, habu bite, diarrhea, vomiting, mammary gland tumor, traffic accident, fracture surgery, urinary retention, renal failure, urethroplasty, urinary retention, forelimb trauma Number of animals: 15 Activity improved: 11/13 (2, not evaluated; 2 unchanged) GPT value improved: 3/3 GOT value improved: 2/2 BUN value improved: 2/2 CRE value improved: 2/2 CPK value improved: 1/1 ALP value improved: 1/1 WBC value improved: 1/1 (decreased) PLT value improved: 2/2 Body temperature decreased: 2/2"}, "[3]": {"conditions": "multiple organ failure, 1 animal"}, "[4]": {"conditions": "total, 18 animals with various diseases"}, "[5]": {"conditions": "animals which did not ingest food"}},
  "note": "No end group written: not given here. *: point of attachment. Octanoyl = CCCCCCCC(=O)*",
  "data": [
    {"substance": "GSS (n-octanoyl) FLSPEHQKLQQRKESKKPPAKLQPR (GSS(Octanoyl)FLSPEHQKLQQRKESKKPPAKLQPR; listed as Canis familiaris) [ghrelin, chemically synthesized, lyophilized]", "values": [
      {"measurement": "Activity (vigor): animals improved/animals evaluated", "setting": "[1]; accident etc., 3 animals", "value": "3/3"},
      {"measurement": "Activity (vigor): response rate", "setting": "[1]; accident etc., 3 animals", "value": 100, "unit": "%"},
      {"measurement": "Biochemical tests: animals improved/animals evaluated", "setting": "[1]; accident etc., 3 animals", "value": "1/1"},
      {"measurement": "Biochemical tests: response rate", "setting": "[1]; accident etc., 3 animals", "value": 100, "unit": "%"},
      {"measurement": "Activity (vigor): animals improved/animals evaluated", "setting": "[1]; anaphylaxis, 1 animal", "value": "1/1"},
      {"measurement": "Activity (vigor): response rate", "setting": "[1]; anaphylaxis, 1 animal", "value": 100, "unit": "%"},
      {"measurement": "Biochemical tests: animals improved/animals evaluated", "setting": "[1]; anaphylaxis, 1 animal", "value": "1/1"},
      {"measurement": "Biochemical tests: response rate", "setting": "[1]; anaphylaxis, 1 animal", "value": 100, "unit": "%"},
      {"measurement": "Serum potassium (K) value after administration", "setting": "[1]; animals in the Examples with decreased serum potassium after persistent poor physical conditions", "value": "improved"},
      {"measurement": "T-bil after administration", "setting": "[1]; before administration 18.8 mg/dL", "value": 4.9, "unit": "mg/dL"},
      {"measurement": "Activity (vigor): animals improved/animals evaluated", "setting": "[1]; debility, 1 animal", "value": "1/1"},
      {"measurement": "Activity (vigor): response rate", "setting": "[1]; debility, 1 animal", "value": 100, "unit": "%"},
      {"measurement": "Biochemical tests: animals improved/animals evaluated", "setting": "[1]; debility, 1 animal", "value": "1/1"},
      {"measurement": "Biochemical tests: response rate", "setting": "[1]; debility, 1 animal", "value": 100, "unit": "%"},
      {"measurement": "NH3 after administration", "setting": "[1]; example, before administration 207 μg/dL", "value": 302, "unit": "µg/dL"},
      {"measurement": "Cre after administration", "setting": "[1]; example, before administration 3.2 mg/dL", "value": 1.3, "unit": "mg/dL"},
      {"measurement": "BUN after administration", "setting": "[1]; example, before administration 72.5 mg/dL", "value": 15.4, "unit": "mg/dL"},
      {"measurement": "Body temperature after administration", "setting": "[1]; example, before administration 40.2° C.", "value": 37.8, "unit": "°C"},
      {"measurement": "White blood cell count after administration", "setting": "[1]; example, before administration 278×10^2/μL", "value": 16700, "unit": "µL⁻¹"},
      {"measurement": "ALP after administration", "setting": "[1]; example, before administration 643 IU/L", "value": 291, "unit": "IU/L"},
      {"measurement": "GPT after administration", "setting": "[1]; example, before administration 670 IU/L", "value": 260, "unit": "IU/L"},
      {"measurement": "CPK after administration", "setting": "[1]; example, before administration 1166 IU/L", "value": 64, "unit": "IU/L"},
      {"measurement": "GOT after administration", "setting": "[1]; example, before administration >1000 IU/L", "value": 187, "unit": "IU/L"},
      {"measurement": "Activity (vigor) score after administration", "setting": "[1]; example, before administration a score of 1 (unable to move), scale 1-7", "value": 3},
      {"measurement": "Activity (vigor): animals improved/animals evaluated", "setting": "[1]; infection, 8 animals", "value": "6/6"},
      {"measurement": "Activity (vigor): response rate", "setting": "[1]; infection, 8 animals", "value": 100, "unit": "%"},
      {"measurement": "Biochemical tests: animals improved/animals evaluated", "setting": "[1]; infection, 8 animals", "value": "6/6"},
      {"measurement": "Biochemical tests: response rate", "setting": "[1]; infection, 8 animals", "value": 100, "unit": "%"},
      {"measurement": "Hematology tests: animals improved/animals evaluated", "setting": "[1]; infection, 8 animals", "value": "1/1"},
      {"measurement": "Hematology tests: response rate", "setting": "[1]; infection, 8 animals", "value": 100, "unit": "%"},
      {"measurement": "Activity (vigor): animals improved/animals evaluated", "setting": "[1]; liver disease, 1 animal", "value": "1/1"},
      {"measurement": "Activity (vigor): response rate", "setting": "[1]; liver disease, 1 animal", "value": 100, "unit": "%"},
      {"measurement": "Body temperature: animals improved/animals evaluated", "setting": "[1]; liver disease, 1 animal", "value": "1/1"},
      {"measurement": "Body temperature: response rate", "setting": "[1]; liver disease, 1 animal", "value": 100, "unit": "%"},
      {"measurement": "Activity (vigor): animals improved/animals evaluated", "setting": "[1]; [3]", "value": "1/1"},
      {"measurement": "Activity (vigor): response rate", "setting": "[1]; [3]", "value": 100, "unit": "%"},
      {"measurement": "Activity (vigor): animals improved/animals evaluated", "setting": "[1]; renal dysfunction, 3 animals", "value": "3/3"},
      {"measurement": "Activity (vigor): response rate", "setting": "[1]; renal dysfunction, 3 animals", "value": 100, "unit": "%"},
      {"measurement": "Biochemical tests: animals improved/animals evaluated", "setting": "[1]; renal dysfunction, 3 animals", "value": "1/1"},
      {"measurement": "Biochemical tests: response rate", "setting": "[1]; renal dysfunction, 3 animals", "value": 100, "unit": "%"},
      {"measurement": "Hematology tests: animals improved/animals evaluated", "setting": "[1]; renal dysfunction, 3 animals", "value": "2/2"},
      {"measurement": "Hematology tests: response rate", "setting": "[1]; renal dysfunction, 3 animals", "value": 100, "unit": "%"},
      {"measurement": "Activity (vigor): animals improved/animals evaluated", "setting": "[1]; [4]", "value": "16/16"},
      {"measurement": "Activity (vigor): response rate", "setting": "[1]; [4]", "value": 100, "unit": "%"},
      {"measurement": "Biochemical tests: animals improved/animals evaluated", "setting": "[1]; [4]", "value": "11/11"},
      {"measurement": "Biochemical tests: response rate", "setting": "[1]; [4]", "value": 100, "unit": "%"},
      {"measurement": "Body temperature: animals improved/animals evaluated", "setting": "[1]; [4]", "value": "1/1"},
      {"measurement": "Body temperature: response rate", "setting": "[1]; [4]", "value": 100, "unit": "%"},
      {"measurement": "Hematology tests: animals improved/animals evaluated", "setting": "[1]; [4]", "value": "3/3"},
      {"measurement": "Hematology tests: response rate", "setting": "[1]; [4]", "value": 100, "unit": "%"},
      {"measurement": "Activity improved: animals improved/animals evaluated", "setting": "[2]; 15 animals which did not ingest food, 2 not evaluated, 2 unchanged", "value": "11/13"},
      {"measurement": "ALP value improved: animals improved/animals evaluated", "setting": "[2]; [5]", "value": "1/1"},
      {"measurement": "BUN value improved: animals improved/animals evaluated", "setting": "[2]; [5]", "value": "2/2"},
      {"measurement": "Body temperature decreased: animals improved/animals evaluated", "setting": "[2]; [5]", "value": "2/2"},
      {"measurement": "CPK value improved: animals improved/animals evaluated", "setting": "[2]; [5]", "value": "1/1"},
      {"measurement": "CRE value improved: animals improved/animals evaluated", "setting": "[2]; [5]", "value": "2/2"},
      {"measurement": "GOT value improved: animals improved/animals evaluated", "setting": "[2]; [5]", "value": "2/2"},
      {"measurement": "GPT value improved: animals improved/animals evaluated", "setting": "[2]; [5]", "value": "3/3"},
      {"measurement": "PLT value improved: animals improved/animals evaluated", "setting": "[2]; [5]", "value": "2/2"},
      {"measurement": "WBC value improved (decreased): animals improved/animals evaluated", "setting": "[2]; [5]", "value": "1/1"}
    ]}
  ]
}
